Test results published in doi:10.1101/2025.04.10.648262, “Time-resolved phenotyping at subcellular resolution reveals shared principles and key trade-offs across antimicrobial peptide activities” (bioRxiv, 2026).
Where two headings read alike, the source gives them in different places. Bridge positions count the residues as written; N and C are the ends. Ends that are not written are not given here.

How the values were obtained:
Assay type in all cases: cell-based, Escherichia coli
E. coli (MG1655) = settings: MG1655, 20 h
Procedure: For all experiments and E. coli strains, cells were grown in a medium (M9gluCAAT) with M9 salts (33.7 mM Na2HPO4, 22mM KH2PO4, 8.55 mM NaCl, 9.35 mM NH4Cl), 0.2% (w/v) glucose, 0.4% (w/v) casamino acids, 1 mM MgSO4, 0.3 mM CaCl2, 1 μg/mL thiamine, and trace elements (13.4 mM ethylene-diamine-tetra-acetic-acid (EDTA), 3.1 mM FeCl3-6H2O, 0.62 mM ZnCl2, 76 μM CuCl2-2H2O, 42 μM CoCl2-2H2O, 162 μM H3BO3, 8.1 μM MnCl2-4H2O). Prior to every experiment, cells were first inoculated into M9gluCAAT and grown to stationary phase at 37°C. For all assays except the biofilm experiments, the culture was diluted to 1/10,000 or more in fresh medium and grown at 37°C until it reached an optical density at 600 nm (OD) of 0.2–0.4. For the biofilm experiments, cells were grown in M9gluCAAT supplemented with 100 μg/mL ampicillin to maintain the GFP-expressing plasmid. The overnight stationary-phase cultures were then diluted into the same medium to an OD of 0.015. See below for details on biofilm growth.
Except for the biofilm experiments, the strains used in this study were derived from MG1655 (ATCC 47076), which was used to estimate the minimum inhibitory concentration (MIC) for all the studied peptides (or peptoids) using a microplate reader (Figure 1A). To detect the timing of outer and inner membrane permeabilization to proteins, strain CJW7845 was constructed to carry two freely diffusing fluorescent proteins: mScarlet-I in the periplasm and mTagBFP2 in the cytoplasm. Construction of CJW7845 was done by transforming pBAD-mTagBFP2 plasmid (Addgene #34632, a gift from Vladislav Verkhusha; ([Subach et al., 2011])) into an E. coli strain expressing a periplasmic mScarlet-I reporter ([Cañas-Duarte 2021]), as previously described ([Chung et al., 1989]). Transformants were restreaked on fresh selection plates and confirmed via microscopy.
(§1) To determine the minimal inhibitory concentration (MIC) of the selected AMPs against either MG1655 or ATCC 25922 E. coli strains, exponentially growing cells were diluted in fresh medium to an OD = 10^−6 (~500 cells/mL) and mixed 50:50 with titrated AMP concentrations (which were chosen to be over a range that included the MIC) in a 96-well plate (flat bottom with low evaporation lid, 3595, Corning, Arizona, USA). A final OD of 5 × 10^−7 corresponds to ~250 cells/mL. OD curves were sampled every 5 min for a total of 48 h using a microplate reader (BioTek Synergy 2, Agilent Technologies Inc., California, USA). Raw data were exported as a text file and analysed using a custom-written Python script (microplate_reader_analysis.py). To measure maximum growth rates, the log(OD) was fitted using a linear regression over a 12-point moving window (60 min), which provides the instantaneous growth rate (log(OD)/h), from which the global maximum was computed. The MIC was defined as the minimum AMP concentration for which the maximum growth rate was < 0.2 log(OD)/h within the first 20 h of incubation. Each MIC experiment was performed independently at least three times (with at least two technical replicates each), and the mode across all replicates was taken as the final MIC; in the rare cases of a tie, an additional replicate was performed, which was sufficient to resolve it.

E. coli ATCC 25922 = tested on: E. coli ATCC 25922
Procedure: Strain ATCC 25922GFP (ATCC, Virginia, USA), which carries a GFP-expressing plasmid, was selected for biofilm experiments. The strain’s ability to form biofilms was first verified at 37°C using Congo Red staining on agar plate containing M9gluCAAT. Congo Red dye binds curli, a major component of the biofilm extracellular matrix. Strain ATCC 25922 (lacking the GFP-expressing plasmid) was used for MIC determination (to avoid interference from the presence of ampicillin required to maintain the plasmid) following the standard growth protocol described above.
as §1

E. coli strain (CJW7845) = test: Time-lapse single-cell phenotyping of inner/outer membrane permeabilization to proteins and growth arrest in microwells; set-up: key to Class (timing of growth arrest relative to IM permeabilization to proteins): Class I AMPs and PMs cause growth arrest predominantly associated with inner membrane (IM) permeabilization; class II compounds inhibit growth without substantial IM permeabilization; settings: for OM-permeabilized cells among IM-permeabilized cells: CJW7845, during the experiment
Procedure: For experiments with PDMS microwells, cells were allowed to grow for ~30 min in the temperature-controlled enclosure prior to imaging. A 10X concentrated AMP solution was spiked in (at 1/10 the volume of the well) and mixed well by pipetting after ~20 min from the start of the image acquisition, without interrupting the timelapse sequence. When the uptake of SYTOX Green was monitored, SYTOX Green was included in the AMP solution and spiked in during the experiment to obtain a final concentration of SYTOX Green of 50 nM in the well. This allowed us to monitor healthy cell growth prior to AMP treatment, to rapidly set the desired AMP (or SYTOX Green) concentration from one frame to the next (unlike for flow-controlled injection systems), and to resolve the AMP-induced phenotype in real time. The current design allows for testing up to four independent conditions in parallel.
To analyse the single-cell experiments in microwells, OmniSegger software (https://github.com/tlo-bot/omnisegger), which combines SuperSegger MATLAB-based suite ([Stylianidou et al., 2016]) for cell analysis with Omnipose segmentation ([Cutler et al., 2022]), was used to first process the microscopy images by performing drift correction, cell segmentation, and cell linking. Given that AMP-treated cells can display extreme phenotypes, such as exceedingly bright and/or heterogeneous phase contrast signal (likely a result of the widely changing intracellular density upon AMP treatment) and that the software’s pre-trained model bact_phase_omni ([Cutler et al, 2022]) tended to split cells before cell division was completed, a new Omnipose model was trained from scratch starting from bact_phase_omni-generated masks that were further corrected and curated using custom-made Python scripts (screening_good_bad.py and generate_training_dataset.py). Details on the Omnipose model retraining can be found in a previous publication ([Thappeta et al., 2025]). The final model (omnipose_phase_microwells_model) and corresponding training datasets are available at https://github.com/JacobsWagnerLab/published/tree/master/Fragasso_et_al_2025 and BioImage Archive (accession number: S-BIAD1823), respectively.
MATLAB files of the linked cell trajectories output from OmniSegger were then imported, background subtracted using background_subtraction.py, which was adapted from a previous study ([Papagiannakis et al., 2025]), and converted to Python data structures (import_processing_code.py), from which cell features such as cell area, nucleoid area, mean fluorescence intensity, etc., were extracted for each cell at each frame. The exported dataframes were further processed to estimate instantaneous growth rates and were run through a series of functions to perform curation based on cell areas and instantaneous growth rates over time (post_processing_curation_functions.py). […] Represented data points were pooled from multiple replicates.
Analysis of strain CJW7845 proceeded by extracting the timings of permeabilization of the outer and inner membranes based on the mean fluorescence intensities of mScarlet-I and/or mTagBFP2 fluorescent proteins (using function get_permeabilization_time.py), cell growth arrest, and the initiation time of growth inhibition. To obtain accurate timings underlying membrane permeabilization events, information from both the signal intensity itself as well as its derivative were combined, which enabled us to accurately resolve the relevant changes in fluorescent protein signal beyond the intrinsic high-frequency noise and low-frequency photobleaching. Inner membrane permeabilization to proteins can result in two possible phenotypes when simultaneously monitoring freely diffusing periplasmic and cytoplasmic probes, depending on which membrane (outer or inner) becomes permeabilized first. When the outer membrane is first permeabilized, mScarlet-I signal is lost first, followed by mTagBFP2 when the inner membrane becomes also permeabilized. […]

[1] = 2X MIC, CJW7845, M9gluCAAT, 37°C, time-lapse microscopy

Molecule	MIC (mode MIC) (E. coli (MG1655)) [µM]	MIC (mode MIC) (E. coli ATCC 25922; ATCC 25922, 20 h) [µM]	other results
CC[C@H](C)[C@H](N)C(=O)N[C@@H](CC(C)C)C(=O)N1CCC[C@H]1C(=O)N[C@@H](Cc1c[nH]c2ccccc12)C(=O)N[C@@H](CCCCN)C(=O)N[C@@H](Cc1c[nH]c2ccccc12)C(=O)N1CCC[C@H]1C(=O)N[C@@H](Cc1c[nH]c2ccccc12)C(=O)N[C@@H](Cc1c[nH]c2ccccc12)C(=O)N1CCC[C@H]1C(=O)N[C@@H](Cc1c[nH]c2ccccc12)C(=O)N[C@@H](CCCNC(=N)N)C(=O)N[C@@H](CCCNC(=N)N)C(N)=O [Indo, indolicidin]	12.5		MIC (mode MIC) (E. coli ATCC 25922; E. coli ATCC 25922, M9gluCAAT, 37°C, 20 h, mode across four biological replicates): 6.2 µM
RRIRPRPPRLPRPRPRPLPFPRPGPRPIPRPLPFP [Bac7, bactenecin-7]	0.6	0.6	
KWKLFKKIEKVGQNIRDGIIKAGPAVAVVGQATQIAK-NH2 [CecA, cecropin A]	0.5	0.5	
CC(C)C[C@H](NC(=O)[C@H](CCCNC(=N)N)NC(=O)CNC(=O)CNC(=O)[C@@H](N)CCCNC(=N)N)C(=O)N[C@H]1CSSC[C@@H](C(=O)N[C@H](C(=O)NCC(=O)N[C@@H](CCCNC(=N)N)C(N)=O)C(C)C)NC(=O)[C@H](C(C)C)NC(=O)[C@@H]2CSSC[C@H](NC(=O)[C@H](Cc3ccc(O)cc3)NC1=O)C(=O)N[C@@H](CCCNC(=N)N)C(=O)N[C@@H](CCCNC(=N)N)C(=O)N[C@@H](CCCNC(=N)N)C(=O)N[C@@H](Cc1ccccc1)C(=O)N2 [PG-1, protegrin-1]			Class (timing of growth arrest relative to IM permeabilization to proteins) (E. coli strain (CJW7845); [1]): I; OM-permeabilized cells among IM-permeabilized cells (E. coli strain (CJW7845); 2X MIC): 163/163; OM-permeabilized cells (out of all IM-permeabilized cells) (E. coli strain (CJW7845); 10X MIC, CJW7845): 48/59
GIINTLQKYYCRVRGGRCAVLSCLPKEEQIGKCSTRGRKCCRRKK (disulfide 11-40, 18-33, 23-41 (inferred)) [HBD-3, human β-defensin 3]	20		Class (timing of growth arrest relative to IM permeabilization to proteins) (E. coli strain (CJW7845); [1]): I; Type (relative timing of OM and IM permeabilization) (E. coli strain (CJW7845); [1]): B (type B AMPs and PMs permeabilize the IM well before (>10 min) the OM); OM-permeabilized cells among IM-permeabilized cells (E. coli strain (CJW7845); 2X MIC): 7/82
RRRPRPPYLPRPRPPPFFPPRLPPRIPPGFPPRFPPRFP-NH2 [PR-39]	2	1	
RRIRFRPPYLPRPGRRPRFPPPFPIPRIPRIP [Tur1A]	1	1	
